# Assay results taken from publication PMC12040169 (PLOS Biology, 2025).
# Test: in vitro
# Details: human, hela cells
row,SMILES,"viability at 28.5 h, 10 µM"
1,O=C(O)CP(=O)(O)c1ccc(Cl)cc1 [CBK019291],102%

# Same assay, conditions: human, hela cells, % viability
row,SMILES,"viability at 28.5 h, 10 µM"
1,Cc1cc(C)n(CCCC(=O)N2CCOCC(O)(CN3CCCC3)C2)n1 (centres unmarked) [CBK306550],101%
2,Cc1cc(C(=O)N2CCCCCC2c2nn(C)cc2Cl)on1 (centres unmarked) [CBK285121],107%
3,CC1(C)NC(C)(C)C(=N\O)/C(=N\O)C/1=N\O [CBK261512],110%
4,Cc1nc(N)sc1-c1csc(Nc2ncccn2)n1 [CBK263307B],108%
5,Cc1ccc(CC2CCCN(C(=O)NCc3cnn(C)c3)C2)cc1 (centres unmarked) [CBK303990],91.8%
6,Cc1cc(C2CCCCCN2C(=O)c2cc(C3CC3)on2)on1 (centres unmarked) [CBK285414],90.1%
7,CCOC(=O)Cn1nc(-c2nonc2N)nc1-c1nonc1N [CBK265482],88.5%
8,CN(CC(=O)NCc1ccc(Cl)cc1)S(=O)(=O)Cc1ccc(C#N)cc1 [CBK305899],92.3%
9,Cc1ccc(C(CCO)Nc2ncnc3c2c(C)nn3C)cc1 (centres unmarked) [CBK307387],82.1%
10,Cc1c(NC(=S)NC(=O)Cc2ccccc2)cccc1-c1nc2ncccc2o1 [CBK264345],118%
11,CCOC(=O)C(=O)N(C)c1c(CC)nc2c(OCc3ccccc3)cccn12 [CBK147879],86.8%
12,Fc1ccc(Oc2nccnc2N2CCN(Cc3cccnc3)CC2)cc1 [CBK083011],87.5%
13,FC(F)(F)Oc1ccc(-c2cc(Nc3ccc(N4CCOCC4)cc3)ncn2)cc1 [CBK090934],88.9%
14,O=C(O)CCC(=O)N1CCC(c2nnc3ccccn23)CC1 [CBK287920],104%
15,Cc1ccc(CCCC(=O)N2CCc3c([nH]c4c(C)cccc34)C23CCN(Cc2ccc(F)cc2)C3)cc1 (centres unmarked) [CBK066979],99.2%
16,CN(c1ccccc1)S(=O)(=O)c1ccc(C(=O)NCc2cccnc2)cc1 [CBK297522],95.5%
17,O=C(CSCc1ccccc1)Nc1ccc(S(=O)(=O)N2CCOCC2)cc1 [CBK087885],93.3%
18,Nc1nonc1-c1noc(-c2cccc(Cl)c2)n1 [CBK026691],90.2%
19,CN1CCN(C)C(COc2cccc(C(F)(F)F)n2)C1 (centres unmarked) [CBK113292],106%
20,Cc1ccc(-c2cncc(N3CCCC3CO)n2)cc1C (centres unmarked) [CBK065945],89.1%
21,CCOc1ccc(OC(=O)c2ccc3c(c2)OCO3)cc1 [CBK149205],92.6%
22,CCSc1ncc(Cl)c(C(=O)N(Cc2cccc(Br)c2)C2CCS(=O)(=O)C2)n1 (centres unmarked) [CBK268969],90.3%
23,OCCN(CCO)Cc1c(Cl)cccc1Cl [CBK261887],93%

row,SMILES,"viability at 28.5 h, 10 µM"
1,Clc1ccc(OCc2nc3ccccc3n2CCOc2ccccc2)c(Cl)c1 [CBK264728],94.8%
2,CCCn1c(C)cc2cc(NC(=O)Cn3ccnc3)ccc21 [CBK281549],92.4%
3,Clc1ccccc1-c1nnn(Cc2ccc(-c3nnn[nH]3)cc2)n1 [CBK267838],89.3%
4,COc1ccc(S(=O)(=O)Nc2ccncc2)cc1N(C)S(=O)(=O)c1ccccc1 [CBK267179],103%
5,Cn1cc(CCNC(=O)N2CCN(Cc3ccsc3)CC2)cn1 [CBK305692],88.6%
6,C[C@@H](Cn1nnc2ccccc21)NC(=O)c1cccs1 [CBK284322],82.3%
7,COCCNC(=O)c1cc(-c2cccc(C(=O)N(C)C)c2)cnc1N1CCOCC1 [CBK076464],97.7%
8,CCCN(Cc1ccoc1)CC1CC1 [CBK018931],94.6%
9,COCCNC(=O)c1ccc(-c2cc(C)cs2)nc1NCC1CC1 [CBK106259],106%
10,COCCNc1nc2c(c(N3CCCC(CO)C3)n1)CCNCC2 (centres unmarked) [CBK307242],111%
11,FC(F)(F)c1cccc(OCCOc2nccnc2N2CCNCC2)c1 [CBK014518G],105%
12,C#CCNC(=O)C1CCCN(c2nc3ccccc3n2CC)C1 (centres unmarked) [CBK282433],90.5%
13,Cc1cc(C)n(CC2CCCCN2C(=O)COc2cccnc2)n1 (centres unmarked) [CBK304040],105%
14,CC(=O)Nc1ccc(Nc2ccc([N+](=O)[O-])cc2[N+](=O)[O-])cc1 [CBK260886],84.6%
15,Oc1ccc(SCCCCCN2CCCCC2)cc1 [CBK261488],92.3%
16,CC(=O)Nc1cccc(-n2nnnc2SCC2CCCCO2)c1 (centres unmarked) [CBK305746],91.5%
17,COC[C@@H]1CCCN1S(=O)(=O)c1ccc(Cl)c(Cl)c1 [CBK044313],91.3%
18,CC(C)NC1=NC(=O)C(CC(=O)Nc2ccccc2)S1 (centres unmarked) [CBK013880],90.7%
19,Cc1n[nH]c(C)c1CCC(=O)N/N=C\c1ccc(Cl)c(Cl)c1 [CBK263395],97.4%
20,Cc1nn(C)c(C)c1CN(C)S(=O)(=O)Cc1ccc(F)cc1 [CBK281590],86.8%
21,C=CCN(c1ccccc1)S(=O)(=O)c1ccc(C(C)(C)CC)cc1 [CBK200036],95.7%
22,CC(C)(C)n1cc(NC2CCN(c3ccc(C#N)cc3)C2=O)cn1 (centres unmarked) [CBK306445],85.7%
23,Cc1ccc(S(=O)(=O)NCCCO)cc1C(=O)O [CBK266610],89.7%

row,SMILES,"viability at 28.5 h, 10 µM"
1,COc1ccc(CN(/N=N/c2nonc2C)c2nonc2C)cc1[N+](=O)[O-] [CBK262386],99.3%
2,NNC(=O)CSc1nnc2ccc(C(F)(F)F)cn12 [CBK006897],90.3%
3,CNC(=O)NC(=O)C1CCN(CCOc2ccccc2)CC1 [CBK034959],94.7%
4,O=C(Nc1ccccc1C(=O)O)c1ccccc1Cl [CBK287114],88%
5,COc1ccc(-c2cncc(N3CCN(C)CC3)n2)cc1 [CBK065378],91.8%
6,O=C(CCc1c[nH]c2ccccc12)OCc1nnc(-c2ccccc2)o1 [CBK269642],101%
7,O=C(NCCNc1ccc(Cl)cc1[N+](=O)[O-])c1c(F)cccc1F [CBK269643],97.6%
8,CN1CC[C@H](c2nc3ncccc3[nH]2)C1 [CBK289384],76.8%
9,CCC(=O)N1CCN(CCNC=C2C(=O)CC(c3cccs3)CC2=O)CC1 (centres unmarked) [CBK264817],97%
10,O=C(O)CCCNC(=O)c1ccncc1 [CBK261146],104%
11,CCCn1ccnc1-c1cn(CCc2cc(O)nc(C)n2)nn1 [CBK306675],114%
12,CS(=O)(=O)c1ccc(-c2cnc3ncccc3c2N)cc1 [CBK083687],97.5%
13,N#CCCN(C(=O)Nc1ccc(Cl)cc1)C1CCCCC1 [CBK156365],89.1%
14,CCOC(=O)C(C)N1C(=O)S/C(=C/c2cc(Cl)c(OCC(=O)O)c(Br)c2)C1=O (centres unmarked) [CBK265163],99.9%
15,CCCNC(=O)Cn1cnc2sc(C(=O)Nc3ccccc3OC)c(C)c2c1=O [CBK071910],90.3%
16,CC(C)(C)c1cc(C(=O)Cn2c(=N)n(Cc3ccccc3)c3ccccc32)cc(C(C)(C)C)c1O [CBK262480B],97.5%
17,CCCN1CCC(NC(=O)c2cccc(S(N)(=O)=O)c2)CC1 [CBK305956],90.6%
18,COc1ccc(S(=O)(=O)Nc2cccc(C(=O)Nc3ccc(F)cc3)c2)cc1OC [CBK038982],71.7%
19,CCCNC(=O)N1CCCC(Cc2ccc(F)cc2F)(C(=O)OCC)C1 (centres unmarked) [CBK307031],94.2%
20,Cc1nn(CC(C)C)c(C)c1CCC(=O)NCc1nnc2ccccn12 [CBK305719],88.1%
21,FC(F)(F)c1cccc(CN2CCC(N3CCCCC3)CC2)c1 [CBK261855],90.1%
22,O=S(=O)(c1ccccc1)N1CCC(c2cc3ncccc3[nH]2)CC1 [CBK283397],104%
23,CN1CCC(N2CCN(C(=O)NCc3ccc4c(c3)OCO4)CC2)CC1 [CBK155885],88.3%

row,SMILES,"viability at 28.5 h, 10 µM"
1,Nc1nc2n(n1)C(c1ccccc1)C1=C(CCCC1)N2 (centres unmarked) [CBK287949],107%
2,Cc1cc(O)ccc1Nc1cc(-c2ccc3c(c2)OCO3)ncn1 [CBK091053],92.6%
3,COc1cc(CN2CCC(N3CCCCCC3)CC2)ccc1OCc1ccccc1 [CBK264709G],90.6%
4,COc1cc(CNC2CCCc3c2cnn3C)cc(OC)c1 (centres unmarked) [CBK304306C],82.4%
5,CCn1ccc(NC(=O)CC2CCN(Cc3cccc(C(F)(F)F)c3)CC2)n1 [CBK285997],101%
6,Cc1[nH]c2ccccc2c1/C=N/NC(=O)C1COc2ccccc2O1 (centres unmarked) [CBK261482],90.9%
7,CN(C)c1ncnc2[nH]ncc12 [CBK016810],115%
8,CN(C)Cc1cc(CN(C)C)c(O)c(CCc2ccccc2)n1 [CBK278316C],90.9%
9,CN(C)c1ccc(-c2nccnc2NS(=O)(=O)c2cccs2)cc1 [CBK050804],90.5%
10,COc1ccc(NC(=O)CCN2C(=O)c3ccccc3S2(=O)=O)cc1 [CBK265863],87.1%
11,COc1ccc(CNC(=O)CCn2c(=O)oc3ccccc32)cc1 [CBK270138],92.7%
12,O=C(N1CCC(Oc2nccnc2OCc2ccc(Cl)cc2F)CC1)C(F)(F)F [CBK164142],89.5%
13,O=C(c1ccc(F)cc1)N1C[C@H](c2ccsc2)[C@H]2CN(Cc3cccs3)CC[C@H]21 [CBK285636],114%
14,CC(Sc1nnc(-c2ccc(Cl)cc2)n1CC(=O)O)C(=O)Nc1ccnn1C(C)C (centres unmarked) [CBK296970],96.9%
15,COc1cccc(-c2cc(C(=O)N3CCC(C)CC3)n[nH]2)c1 [CBK288109],94.3%
16,COc1cc(CO)c(-c2c[nH][nH]c2=O)cc1OC [CBK009476],85.5%
17,CCC1CCCCN1C(=O)CCc1c(C)nc(-c2ccccc2)[nH]c1=O (centres unmarked) [CBK305608],87.5%
18,O=C(O)CCCN1C(=O)C(O)=C(C(=O)c2ccc([N+](=O)[O-])cc2)C1c1ccccc1F (centres unmarked) [CBK263810],97.8%
19,COc1cc(-c2cn3ccnc3c(NC3CC3)n2)cc(OC)c1OC [CBK066184],90%
20,c1ccc(Nc2ccccc2Nc2ccccn2)nc1 [CBK261806],93.5%
21,CCOc1ccccc1NC(=O)NCc1cccnc1 [CBK267026],107%

# Same assay, conditions: human, hela cells, % viability, bulk resorufin, single well
row,SMILES,"viability at 28.5 h, 10 µM"
1,NCCCC(=O)OC1N=C(c2ccccc2Cl)c2cc(Br)ccc2NC1=O (centres unmarked) [CBK264689B],104%
